Experimental data as given in patent US20130317029A1 (PORTOLA PHARMACEUTICALS, INC., priority 2010, published 2013).

Target: T1, full length active recombinant SYK enzyme (Homo sapiens, UniProt P43405)
T1 construct: full length active recombinant SYK enzyme (Millipore, Calif.); purchased Millipore
Test: Inhibition of Syk tyrosine phosphorylation activity (LANCE TR-FRET kinase assay)
Assay type: biochemical
Procedure, shortened: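 Full-length active recombinant SYK (1 nM) phosphorylated biotinylated SYK-specific peptide (550 nM) with 100 μM ATP in 50 mM Tris pH 7.5, 5 mM MgCl2, 1 mM DTT, 3% DMSO, 1 h at room temperature. EDTA quench with Eu-anti-phosphotyrosine and SA-APC, 1 h TR-FRET read; IC50 by non-linear regression.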

| Compound | IC50 [nM] |
| --- | --- |
| COCCOc1ccc(Nc2nc(N[C@H](CC(C)C)C(N)=O)[nH]c(=O)c2C(N)=O)cc1 [Example 93, (R)-2-(1-amino-4-methyl-1-oxopentan-2-ylamino)-4-(4-(2-methoxyethoxy)phenylamino)-6-oxo-1,6-dihydropyrimidine-5-carboxamide] | 1 to 10 |
| CC[C@@H](Nc1nc(Nc2ccc(OCCOC)cc2)c(C(N)=O)c(=O)[nH]1)C(N)=O [Example 94, (R)-2-(1-amino-1-oxobutan-2-ylamino)-4-(4-(2-methoxyethoxy)phenylamino)-6-oxo-1,6-dihydropyrimidine-5-carboxamide] | 1 to 10 |
| NC(=O)c1c(Nc2cccc(-c3ccccn3)c2)nc(N[C@H](CC2CC2)C(N)=O)[nH]c1=O [Example 95, (R)-2-(1-amino-3-cyclopropyl-1-oxopropan-2-ylamino)-6-oxo-4-(3-(pyridin-2-yl)phenylamino)-1,6-dihydropyrimidine-5-carboxamide] | 1 to 10 |
| CC(C)[C@@H](Nc1nc(Nc2cccc(-c3ccccn3)c2)c(C(N)=O)c(=O)[nH]1)C(N)=O [Example 96, (R)-2-(1-amino-3-methyl-1-oxobuan-2-ylamino)-6-oxo-4-(3-(pyridin-2-yl)phenylamino)-1,6-dihydropyrimidine-5-carboxamide] | 1 to 10 |
| CC(C)C[C@@H](Nc1nc(Nc2cccc(-c3cccnc3)c2)c(C(N)=O)c(=O)[nH]1)C(N)=O [Example 97, (R)-2-(1-amino-4-methyl-1-oxopentan-2-ylamino)-6-oxo-4-(3-(pyridin-3-yl)phenylamino)-1,6-dihydropyrimidine-5-carboxamide] | 1 to 10 |
| COCCOc1cccc(Nc2nc(N[C@H](CC(C)C)C(N)=O)[nH]c(=O)c2C(N)=O)c1 [Example 98, (R)-2-(1-amino-4-methyl-1-oxopentan-2-ylamino)-4-(3-(2-methoxyethoxy)phenylamino)-6-oxo-1,6-dihydropyrimidine-5-carboxamide] | 1 to 10 |
| CC[C@@H](Nc1nc(Nc2cccc(OCCOC)c2)c(C(N)=O)c(=O)[nH]1)C(N)=O [Example 99, (R)-2-(1-amino-1-oxobutan-2-ylamino)-4-(3-(2-methoxyethoxy)phenylamino)-6-oxo-1,6-dihydropyrimidine-5-carboxamide] | 1 to 10 |
| CNC(=O)[C@@H](CC(C)C)Nc1nc(Nc2cccc(-c3ccccn3)c2)c(C(N)=O)c(=O)[nH]1 [Example 100, (R)-2-(4-methyl-1-(methylamino)-1-oxopentan-2-ylamino)-6-oxo-4-(3-(pyridin-2-yl)phenylamino)-1,6-dihydropyrimidine-5-carboxamide] | > 1000 |
| CC(C)C[C@@H](Nc1nc(Nc2cccc(OC(F)(F)F)c2)c(C(N)=O)c(=O)[nH]1)C(N)=O [Example 101, (R)-2-(1-amino-4-methyl-1-oxopentan-2-ylamino)-4-(3-(trifluoromethoxy)phenylamino)-6-oxo-1,6-dihydropyrimidine-5-carboxamide] | 1 to 10 |
| CC[C@@H](Nc1nc(Nc2cccc(OC(F)(F)F)c2)c(C(N)=O)c(=O)[nH]1)C(N)=O [Example 102, (R)-2-(1-amino-1-oxobutan-2-ylamino)-4-(3-(trifluoromethoxy)phenylamino)-6-oxo-1,6-dihydropyrimidine-5-carboxamide] | 1 to 10 |
| CNC(=O)[C@@H](CC(C)C)Nc1nc(Nc2ccc3ncsc3c2)c(C(N)=O)c(=O)[nH]1 [Example 103, (R)-4-(benzo[d]thiazol-6-ylamino)-2-(4-methyl-1-(methylamino)-1-oxopentan-2-ylamino)-6-oxo-1,6-dihydropyrimidine-5-carboxamide] | 10 to 100 |
| CNC(=O)[C@@H](CC(C)C)Nc1nc(Nc2cccc(-n3cccn3)c2)c(C(N)=O)c(=O)[nH]1 [Example 104, (R)-4-(3-(1H-pyrazol-1-yl)phenylamino)-2-(4-methyl-1-(methylamino)-1-oxopentan-2-ylamino)-6-oxo-1,6-dihydropyrimidine-5-carboxamide] | > 1000 |
| CNC(=O)[C@@H](CC(C)C)Nc1nc(Nc2ccc3[nH]ncc3c2)c(C(N)=O)c(=O)[nH]1 [Example 105, (R)-4-(1H-indazol-5-ylamino)-2-(4-methyl-1-(methylamino)-1-oxopentan-2-ylamino)-6-oxo-1,6-dihydropyrimidine-5-carboxamide] | 100 to 1000 |
| CC(C)C[C@@H](Nc1nc(Nc2ccc(-c3cccnc3)cc2)c(C(N)=O)c(=O)[nH]1)C(N)=O [Example 106, (R)-2-(1-amino-4-methyl-1-oxopentan-2-ylamino)-6-oxo-4-(4-(pyridin-3-yl)phenylamino)-1,6-dihydropyrimidine-5-carboxamide] | 1 to 10 |
| CC(C)C[C@@H](Nc1nc(Nc2ccc3cccnc3c2)c(C(N)=O)c(=O)[nH]1)C(N)=O [Example 107, (R)-2-(1-amino-4-methyl-1-oxopentan-2-ylamino)-6-oxo-4-(quinolin-7-ylamino)-1,6-dihydropyrimidine-5-carboxamide] | 1 to 10 |
| CC(C)C[C@@H](Nc1nc(Nc2cnc3ccccc3c2)c(C(N)=O)c(=O)[nH]1)C(N)=O [Example 108, (R)-2-(1-amino-4-methyl-1-oxopentan-2-ylamino)-6-oxo-4-(quinolin-3-ylamino)-1,6-dihydropyrimidine-5-carboxamide] | < 1 |
| CC[C@@H](Nc1nc(Nc2cnc3ccccc3c2)c(C(N)=O)c(=O)[nH]1)C(N)=O [Example 109, (R)-2-(1-amino-1-oxobutan-2-ylamino)-6-oxo-4-(quinolin-3-ylamino)-1,6-dihydropyrimidine-5-carboxamide] | < 1 |
| COc1ccc(Nc2nc(N[C@H](CC(C)C)C(N)=O)[nH]c(=O)c2C(N)=O)cn1 [Example 110] | 1 to 10 |
| CC(C)C[C@@H](Nc1nc(Nc2ccc(-c3ccncc3)cc2)c(C(N)=O)c(=O)[nH]1)C(N)=O [Example 111, (R)-2-(1-amino-4-methyl-1-oxopentan-2-ylamino)-6-oxo-4-(4-(pyridin-4-yl)phenylamino)-1,6-dihydropyrimidine-5-carboxamide] | 1 to 10 |
| CC(C)C[C@@H](Nc1nc(Nc2cccc(-c3ccncc3)c2)c(C(N)=O)c(=O)[nH]1)C(N)=O [Example 112, (R)-2-(1-amino-4-methyl-1-oxopentan-2-ylamino)-6-oxo-4-(3-(pyridin-4-yl)phenylamino)-1,6-dihydropyrimidine-5-carboxamide] | 1 to 10 |
| CC(C)C[C@@H](Nc1nc(Nc2ccc(-c3ccccn3)cc2)c(C(N)=O)c(=O)[nH]1)C(N)=O [Example 113, (R)-2-(1-amino-4-methyl-1-oxopentan-2-ylamino)-6-oxo-4-(4-(pyridin-2-yl)phenylamino)-1,6-dihydropyrimidine-5-carboxamide] | 1 to 10 |
| CC(C)C[C@@H](Nc1nc(Nc2cnn(C)c2)c(C(N)=O)c(=O)[nH]1)C(N)=O [Example 114, (R)-2-(1-amino-4-methyl-1-oxopentan-2-ylamino)-4-(1-methyl-1H-pyrazol-4-ylamino)-6-oxo-1,6-dihydropyrimidine-5-carboxamide] | 1 to 10 |
| CC(C)C[C@@H](Nc1nc(Nc2ccc(-n3ccnc3)cc2)c(C(N)=O)c(=O)[nH]1)C(N)=O [Example 115, (R)-2-(1-amino-4-methyl-1-oxopentan-2-ylamino)-4-(4-(1H-imidazol-1-yl)phenylamino)-6-oxo-1,6-dihydropyrimidine-5-carboxamide] | 1 to 10 |
